The source of these data is ChEMBL document CHEMBL4842374, “Natural inspired piperine-based sulfonamides and carboxylic acids as carbonic anhydrase inhibitors: Design, synthesis and biological evaluation” (Eur J Med Chem, 2021).

One test deals with Carbonic anhydrase 1 (Homo sapiens, UniProt P00915). The experiment in a line: Inhibition of human CA1 measured after 15 mins by stopped flow carbon dioxide anhydrase assay.
For a further test, the target named is Carbonic anhydrase 2 (Homo sapiens, UniProt P00918). The experiment in a line: Inhibition of human CA2 measured after 15 mins by stopped flow carbon dioxide anhydrase assay.
The next test concerns the target Carbonic anhydrase 9 (Homo sapiens, UniProt Q16790).
The target of the next test is Carbonic anhydrase 12 (Homo sapiens, UniProt O43570). The experiment in a line: Inhibition of human CA12 measured after 15 mins by stopped flow carbon dioxide anhydrase assay.
Sequence of Carbonic anhydrase 12 (O43570 whole entry): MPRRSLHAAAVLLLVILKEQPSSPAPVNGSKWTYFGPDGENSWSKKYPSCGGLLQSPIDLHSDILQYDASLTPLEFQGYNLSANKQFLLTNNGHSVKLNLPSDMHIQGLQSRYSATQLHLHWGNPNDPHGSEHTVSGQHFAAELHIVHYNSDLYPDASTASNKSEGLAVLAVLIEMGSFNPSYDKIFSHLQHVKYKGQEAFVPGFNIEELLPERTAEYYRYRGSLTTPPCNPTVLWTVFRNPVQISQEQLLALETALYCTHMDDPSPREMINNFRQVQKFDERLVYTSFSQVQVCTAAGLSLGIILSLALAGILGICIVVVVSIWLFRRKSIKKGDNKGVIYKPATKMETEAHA
Test [1] relates to MCF7. Briefly: cells. The following applies: Homo sapiens, MCF7, 48 h. It counts as functional, cell-based.
Description: Antiproliferative activity against human MCF7 cells assessed as inhibition of cell proliferation measured after 48 hrs by MTT assay
Test [2] concerns MCF7. The experiment in a line: Induction of apoptosis in human MCF7 cells assessed as early apoptotic cells measured by AnnexinV/FITC staining based flow cytometry assay ( Rvb = 0.52%). It counts as functional. In general terms: Flow cytometry measures light scatter and fluorescence of single cells or particles in a stream.
Test [3] relates to MCF7. Briefly: Induction of apoptosis in human MCF7 cells assessed as late apoptotic cells measured by AnnexinV/FITC staining based flow cytometry assay ( Rvb = 0.17%). It counts as functional.
For test [4], the system named is MCF7. Briefly: Induction of apoptosis in human MCF7 cells assessed as necrotic cells measured by AnnexinV/FITC staining based flow cytometry assay ( Rvb = 0.74%). It counts as functional.

Sequence of Carbonic anhydrase 1 (P00915 whole entry): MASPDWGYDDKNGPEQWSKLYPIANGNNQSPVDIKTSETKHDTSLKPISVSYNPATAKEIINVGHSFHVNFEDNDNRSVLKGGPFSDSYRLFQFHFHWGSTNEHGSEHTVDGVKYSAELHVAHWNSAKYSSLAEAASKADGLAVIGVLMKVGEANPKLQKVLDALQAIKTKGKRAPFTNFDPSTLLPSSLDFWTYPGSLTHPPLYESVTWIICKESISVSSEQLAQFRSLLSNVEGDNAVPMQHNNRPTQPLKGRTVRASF
Description for Carbonic anhydrase 9: Inhibition of human CA9 measured after 15 mins by stopped flow carbon dioxide anhydrase assay

As for `COC(=O)c1ccc(NC(=O)N/C=C/C=C/c2ccc3c(c2)OCO3)cc1`, the Ki on Carbonic anhydrase 1, on Carbonic anhydrase 2, on Carbonic anhydrase 9 and at Carbonic anhydrase 12 was > 100 µM each time.
On to `O=C(N/C=C/C=C/c1ccc2c(c1)OCO2)Nc1ccc(C(=O)O)cc1`, for which the Ki was > 100 µM on Carbonic anhydrase 1 and 16.1 µM on Carbonic anhydrase 9.
Compound `NS(=O)(=O)c1ccc(CCNC(=O)N/C=C/C=C/c2ccc3c(c2)OCO3)cc1` displayed a Ki on Carbonic anhydrase 9 of 0.0682 µM.
For the compound `O=C(N/C=C/C=C/c1ccc2c(c1)OCO2)Nc1ccccc1C(=O)O`, the results for the Ki at Carbonic anhydrase 1 and on Carbonic anhydrase 9 were > 100 µM and 30.3 µM, respectively.
With `Cc1ccc(NC(=O)N/C=C/C=C/c2ccc3c(c2)OCO3)cc1S(N)(=O)=O`, the affinity at Carbonic anhydrase 9 corresponds to a Ki of 0.903 µM.
In turn, `NS(=O)(=O)c1ccccc1NC(=O)N/C=C/C=C/c1ccc2c(c1)OCO2` gave a Ki on Carbonic anhydrase 9 of 0.739 µM.
With `O=C(N/C=C/C=C/c1ccc2c(c1)OCO2)Nc1ccc(S(=O)(=O)Nc2nccs2)cc1`, the Ki at Carbonic anhydrase 1, at Carbonic anhydrase 2, on Carbonic anhydrase 9 and on Carbonic anhydrase 12 was > 100 µM in each case.
As to `O=C(N/C=C/C=C/c1ccc2c(c1)OCO2)Nc1cccc(C(=O)O)c1`, the Ki was > 100 µM at Carbonic anhydrase 1 and 24.8 µM at Carbonic anhydrase 9.
As to `CC(=O)c1ccc(NC(=O)N/C=C/C=C/c2ccc3c(c2)OCO3)cc1`, the Ki on Carbonic anhydrase 1, at Carbonic anhydrase 2, at Carbonic anhydrase 9 and at Carbonic anhydrase 12 was > 100 µM in each case.
In the case of `NS(=O)(=O)c1cccc(NC(=O)N/C=C/C=C/c2ccc3c(c2)OCO3)c1`, at Carbonic anhydrase 9, the affinity corresponds to a Ki of 0.319 µM.
Turning to `COC(=O)c1cccc(NC(=O)N/C=C/C=C/c2ccc3c(c2)OCO3)c1`, the Ki on Carbonic anhydrase 1, on Carbonic anhydrase 2, at Carbonic anhydrase 9 and on Carbonic anhydrase 12 was > 100 µM in each case.
At Carbonic anhydrase 9, `NS(=O)(=O)c1ccc(NC(=O)N/C=C/C=C/c2ccc3c(c2)OCO3)cc1` showed a Ki of 0.0387 µM. In the test on MCF7 [1], this compound yielded an IC50 of 2.17 µM. Besides, the Activity in the test with MCF7 [2] is on record as 1.91%; in the test with MCF7 [3] it was 23.14%; in the test on MCF7 [4], 14.19%.

In general, Ki refers to the equilibrium dissociation constant of an inhibitor or competing ligand from its target. A low value points to higher affinity. Broadly, the IC50 is the point on the concentration scale where inhibition reaches its midpoint. A high value points to a need for much substance.
